Measurements taken from patent US9115072B2, “Compounds and method for reducing uric acid” (WELLSTAT THERAPEUTICS CORPORATION, priority 2008, dated 2015).
Counter-ions that a name gives are not always drawn.

Target: T1, human URAT1 (Homo sapiens, UniProt Q96S37)
T1 construct: The full-length hURAT1 cDNA was obtained from the vector pCMV6-XL5 and subcloned into the expression vector pCMV6-Neo
T1 sequence (Q96S37 1-553): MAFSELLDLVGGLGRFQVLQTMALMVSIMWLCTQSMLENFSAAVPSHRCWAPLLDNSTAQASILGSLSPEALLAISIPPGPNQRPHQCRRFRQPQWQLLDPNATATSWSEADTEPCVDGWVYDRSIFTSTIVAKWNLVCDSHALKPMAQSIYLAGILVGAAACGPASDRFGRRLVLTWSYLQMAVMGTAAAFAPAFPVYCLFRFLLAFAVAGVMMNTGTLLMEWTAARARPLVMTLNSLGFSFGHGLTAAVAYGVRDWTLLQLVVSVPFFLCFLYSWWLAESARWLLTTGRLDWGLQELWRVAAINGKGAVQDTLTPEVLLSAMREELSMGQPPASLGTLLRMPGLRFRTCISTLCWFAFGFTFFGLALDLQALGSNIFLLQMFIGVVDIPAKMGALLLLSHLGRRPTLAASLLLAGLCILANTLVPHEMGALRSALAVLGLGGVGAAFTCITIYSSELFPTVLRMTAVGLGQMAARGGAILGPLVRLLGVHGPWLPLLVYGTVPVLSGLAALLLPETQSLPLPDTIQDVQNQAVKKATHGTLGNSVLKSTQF
Assay: URAT1 inhibition assay, [8-14C] urate uptake in hURAT1-HEK cells
Assay type: cell-based
Settings: 50 μM [8-14C] urate; for inhibition at 10 µM: drug concentration typically 10 micromolar, read-out: % of Inhibition (uric acid uptake)
Method: A suitable assay involves transfection of cells (e.g. human embryonic kidney cells; “HEK”) with a vector encoding human URAT1, followed by determination of the ability of transfected cells to take up radiolabeled uric acid. The activity of compounds as URAT1 inhibitors is evaluated by their ability to block uric acid uptake by transfected cells.
Urate (50-60 mCi/mmol; American Radio Chemicals, Cat. No. ARC0513).
Plasmid vector pCMV6-XL5 containing hURAT1 cDNA (Cat. No. SC125624) and the expression vector pCMV6-Neo (Cat. No. pCMVNEO) were obtained from OriGene Technologies, Inc. The full-length hURAT1 cDNA was obtained from the vector pCMV6-XL5 and subcloned into the expression vector pCMV6-Neo to create the hURAT1 expression plasmid pCMV6-hURAT1. The sequences were verified by automatic DNA sequencing.
For transfection experiments, cells were plated on 60 mm dishes in 1 ml media per dish. […] Stable transfectants expressing hURAT1 (herein after referred as hURAT1-HEK cells) or cells having only the expression vector pCMV6-Neo (herein after referred as mock-HEK cells) were verified using reverse transcription polymerase chain reaction (RT-PCR) methods.
Before the uptake assay started, the culture medium was removed and the cells were incubated for 5 min in 0.6 ml of HBSS. After that HBSS was removed, the prepared reaction solutions were added into each well and incubated for 5 min at room temperature. Then the reaction solution was removed, cells were washed twice with 0.6 ml of cold HBSS and lysed with 0.2 ml of 0.1 M NaOH for 20 min. […] Test compounds were dissolved in DMSO and the same concentration of DMSO was added into the wells of mock-HEK cells and the hURAT1-HEK cells that didn't contain test compounds. For each test compound, the uptake assay was performed 2 times and carried out in triplicate. Urate uptake of the cells for each test condition was presented as the average percent inhibition in comparison to the DMSO control. The radioactivity values obtained for the wells that contained DMSO were taken as 100% uptake of the cells. The observed concentration-percent inhibition data were fitted to a sigmoidal concentration-effect model, where: IC50^Slope=[(100*Conc^Slope)/% Inhibition]−Conc^Slope
Additional drug concentrations were tested for determination of IC-50 values for some compounds (Table 6).

inhibition at 10 µM [%] | IC50 [nM] | SMILES
26.8 |  | O=C(O)CCC(=O)c1ccc(OCc2c(F)cccc2F)cc1 [AH, 4-(4-(2,6-Difluorobenzyloxy)phenyl)-4-oxobutanoic acid]
89.7 |  | Cc1cccc(Cl)c1COc1cccc(CC(=O)O)c1 [EG, 2-(3-(2-Chloro-6-methylbenzyloxy)phenyl)acetic acid]
93 |  | Cc1cccc(C)c1COc1cc(CC(=O)O)ccc1F [EI, 2-(3-(2,6-Dimethylbenzyloxy)-4-fluorophenyl)acetic acid]
79.5 | 890 | CCC(C(=O)O)c1cccc(OCc2c(C)cccc2C)c1 (stereo not drawn) [DV, 2-(3-(2,6-Dimethylbenzyloxy)phenyl)butanoic acid]
64 |  | Cc1ccc(COc2cccc(CC(=O)O)c2)c(C)c1 [DX, 2-(3-(2,4-Dimethylbenzyloxy)phenyl)acetic acid]
54.4 |  | Cc1ccccc1COc1cccc(C(=O)CCC(=O)O)c1 [AN, 4-(3-(2-Methylbenzyloxy)phenyl)-4-oxobutanoic acid]
21.6 |  | COC(=O)CC(=O)c1cccc(OCc2c(C)cccc2C)c1 [EB, Methyl 3-(3-(2,6-dimethylbenzyloxy)phenyl)-3-oxopropanoate]
60.5 |  | Cc1cccc(C)c1C(=O)Oc1cccc(C(=O)CCC(=O)O)c1 [DP, 4-(3-(2,6-Dimethylbenzoyloxy)phenyl)-4-oxobutanoic acid]
45.4 |  | O=C(O)Cc1cccc(OCc2ccc(C(F)(F)F)cc2C(F)(F)F)c1 [DN, 2-(3-(2,4-bis(trifluoromethyl)benzyloxy)phenyl)acetic acid]
81.8 |  | Cc1cccc(F)c1COc1cccc(C(=O)CCC(=O)O)c1 [BJ, 4-(3-(2-Fluoro-6-methylbenzyloxy)phenyl)-4-oxobutanoic acid]
76.5 | 4390 | Cc1cccc(C)c1COc1cccc(C(=O)CC(C)(C)C(=O)O)c1 [BP, 4-(3-(2,6-Dimethylbenzyloxy)phenyl)-2,2-dimethyl-4-oxobutanoic acid]
2.3 |  | O=C(O)CCC(=O)c1ccc(OCc2ccccc2Cl)cc1 [AI, 4-(4-(2-Chlorobenzyloxy)phenyl)-4-oxobutanoic acid]
41.3 |  | O=C(O)CCC(=O)c1ccc(OCc2ccccn2)cc1 [AF, 4-oxo-4-(4-(pyridin-2-ylmethoxy)phenyl)butanoic acid]
89.1 |  | Cc1cccc(C)c1COc1cccc(C(C)C(=O)O)c1 (stereo not drawn) [DT, 2-(3-(2,6-Dimethylbenzyloxy)phenyl)propanoic acid]
84.8 | 1330 | Cc1cccc(C)c1COc1cccc(C(=O)C(=O)O)c1 [CQ, 2-(3-(2,6-Dimethylbenzyloxy)phenyl)-2-oxoacetic acid]
0 |  | CN(CCOc1ccc(C(=O)CCC(=O)O)cc1)Cc1ccccc1F [AM, 4-(4-(2-((2-Fluorobenzyl)(methyl)amino)ethoxy)phenyl)-4-oxobutanoic acid hydrochloride]
61.9 |  | O=C(O)CCC(=O)c1cccc(OCc2c(F)cccc2F)c1 [AW, 4-(3-(2,6-Difluorobenzyloxy)phenyl)-4-oxobutanoic acid]
89 | 1010 | Cc1cccc(C)c1COc1cccc(CCC(=O)O)c1 [CM, 3-(3-(2,6-Dimethylbenzyloxy)phenyl)propanoic acid]
90.3 | 590 | Cc1cccc(C)c1COc1cccc(C2(C(=O)O)CC2)c1 [EF, 1-(3-(2,6-Dimethylbenzyloxy)phenyl)cyclopropanecarboxylic acid]
8.9 |  | O=C(O)CCC(=O)c1ccc(OCc2ccccc2C(F)(F)F)cc1 [AY, 4-(4-(2-Trifluoromethylbenzyloxy)phenyl)-4-oxobutanoic acid]
88 | 2690 | Cc1cccc(C)c1COc1cccc(CCCCC(=O)O)c1 [CK, 5-(3-(2,6-Dimethylbenzyloxy)phenyl)pentanoic acid]

inhibition at 10 µM [%] | IC50 [nM] | SMILES
60.6 |  | Cc1cccc(C)c1COc1cccc([C@H](O)CCC(=O)O)c1 [CR, 4-(3-(2,6-Dimethylbenzyloxy)-phenyl)-4(R)-hydroxybutanoic acid]
30.5 |  | O=C(O)Cc1cccc(OCc2ccc(C(F)(F)F)cc2)c1 [DU]
49 |  | Cc1cccc(C)c1COc1ccccc1CC(=O)O [EA, 2-(2-(2,6-Dimethylbenzyloxy)phenyl)acetic acid]
90.1 |  | Cc1cccc(C)c1COc1cccc(C(C)(C)C(=O)O)c1 [EE, 2-(3-(2,6-Dimethylbenzyloxy)phenyl)-2-methylpropanoic acid]
22.2 |  | Cc1cccc(C)c1COc1ccc(C(=O)CCC(=O)O)cc1 [BM, 4-(4-(2,6-Dimethylbenzyloxy)phenyl)-4-oxobutanoic acid]
5.99 |  | O=C(O)CCC(=O)c1ccc(OCc2ccccc2)cc1 [AG, 4-(4-(Benzyloxy)phenyl)-4-oxobutanoic acid]
51.8 |  | COc1cc(C(=O)CCC(=O)O)ccc1OCc1c(C)cccc1C [BT, 4-(4-(2,6-Dimethylbenzyloxy)-3-methoxyphenyl)-4-oxobutanoic acid]
7.95 |  | Cc1ccc(C)c(COc2ccc(C(=O)CCC(=O)O)cc2)c1 [AT, 4-(4-(2,5-Dimethylbenzyloxy)phenyl)-4-oxobutanoic acid]
28.6 |  | Cc1cccc(C)c1COc1cccc(CCCC(=O)O)c1 [BS, 4-(3-(2,6-Dimethylbenzyloxy)phenyl)butanoic acid]
3.7 |  | COc1ccccc1COc1ccc(C(=O)CCC(=O)O)cc1 [AB, 4-(4-(2-Methoxybenzyloxy)phenyl)-4-oxobutanoic acid]
62.4 |  | O=C(O)CCC(=O)c1cccc(OCC2CC2)c1 [BH, 4-(3-(Cyclopropylmethoxy)phenyl)-4-oxobutanoic acid]
63.5 |  | Cc1cccc(C)c1COc1cccc(C(=O)CCCC(=O)O)c1 [CD, 5-(3-(2,6-Dimethylbenzyloxy)phenyl)-5-oxopentanoic acid]
54 |  | Cc1cc(C)cc(COc2cccc(CC(=O)O)c2)c1 [DW, 2-(3-(3,5-Dimethylbenzyloxy)phenyl)acetic acid]
80.3 |  | Cc1cccc(C)c1COc1ccc(CC(=O)O)cc1 [DO, 2-(4-(2,6-Dimethylbenzyloxy)phenyl)acetic acid]
26.9 |  | O=C(O)Cc1cccc(OCc2ccccc2)c1 [DZ, 2-(3-(Benzyloxy)phenyl)acetic acid]
96.5 | 530 | Cc1cccc(C)c1COc1cccc(CC(=O)O)c1 [CF, 3-(2,6-Dimethylbenzyloxy)phenylacetic acid]
85.2 | 1880 | COc1cccc(OC)c1COc1cccc(CC(=O)O)c1 [DY, 2-(3-(2,6-Dimethoxylbenzyloxy)phenyl)acetic acid]
99.4 | 180 | COc1ccc(CC(=O)O)cc1OCc1c(C)cccc1C [DQ, 2-(3-(2,6-Dimethylbenzyloxy)-4-methoxyphenyl)acetic acid]
75 |  | O=C(O)CCC(=O)c1cccc(OCc2c(Cl)cccc2Cl)c1 [DS, 4-(3-(2,6-Dichlorobenzyloxy)phenyl)-4-oxobutanoic acid]
 | 330 | Cc1cccc(C)c1COc1cccc(C(C)C(=O)O)c1 (stereo not drawn) [EC, 2-(3-(2,6-Dimethylbenzyloxy)phenyl)propanoic acid]
68.3 |  | O=C(O)Cc1cccc(OCc2c(F)cccc2F)c1 [DR, 2-(3-(2,6-Difluorobenzyloxy)phenyl)acetic acid]
